Experimental data from patent publication US20140134283A1, “Compositions and Methods for Affecting Mental State and Body Composition” (USPLABS. LLC, priority 2012, published 2014).
“Also recorded” adds a separate entry of the source.

Experiments:
human subjects [1] = assay: Initial human study, two male subjects ingesting aegeline for 12-18 weeks, reported effects; type: in vivo; details: for libido: male volunteers
human subjects [2] = assay: Human study, six adult males ingesting 200-800 mg aegeline per day: effects reported by subjects; type: in vivo
Text: In a separate study, the compound aegeline was orally administered to six human subjects. The volunteer subjects were all non-smoking males between the ages of 24-36.

In the case of COc1ccc(C(O)CNC(=O)/C=C/c2ccccc2)cc1 (stereo not shown) [aegeline, N-[2-hydroxy-2(4-methoxyphenyl)ethyl]-3-phenyl-2-propenamide], the effect on thermogenesis (human subjects [1]; daily dose of 80 mg) is reported as “without a very noticeable effect; also recorded: not very noticeable”, the “mental stamina, focus, and mood” value (human subjects [1]; daily dose of 80 mg) is reported as “effective to increase or improve” and the “duration of effects on mental stamina, focus, and mood after effect onset” value (human subjects [1]; daily dose of 120 mg) is reported as 8 to 10 h. For the same compound, the “mental stamina, focus, and mood” value (human subjects [1]; daily dose of 120 mg) was “further increased or improved”, the thermogenic effect (human subjects [1]; daily dose of 120 mg) was “noticeable but not very apparent; also recorded: noticeable” and the “mental stamina, focus, energy level, mood and thermogenesis” value (human subjects [1]; dose increase to 150-180 mg) was “further enhanced or increased”. For the same compound, the libido (human subjects [1]; daily dose of 150 mg) was “increased libido; also recorded: effective to increase libido”, the libido (human subjects [1]; daily doses lower than 150 mg) was “not at the lower daily doses” and the reported effects (human subjects [1]; two male subjects, 20-60 mg per day) was “no immediate apparent effects”. For the same compound, the “mental stamina, focus and concentration, energy level, and mood” value (human subjects [1]; two male subjects, 80-150 mg per day) was “increased or improved”, the anabolic effects (human subjects [2]; 200 mg per day) was “became apparent after extended use” and the thermogenic effect (human subjects [2]; 200 mg per day) was “very apparent”. For the same compound, the “time of daily administration until anabolic effects became apparent” value (human subjects [2]; 200 mg per day) was “around 7 days”, the libido (human subjects [2]; 400 mg per day) was “very apparent and prolonged increase” and the effect on libido (human subjects [2]; daily dose of 200 mg) was “further increased”. The “effects on mental stamina, energy level, focus, and mood” value (human subjects [2]; daily dose of 200 mg) was “very apparent”, the anabolic effects (human subjects [2]; daily dose of 400 mg) was “immediately apparent” and the “dose-dependency of effects on mental stamina, energy level, focus, and mood” value (human subjects [2]; doses above 400 mg per day) was “not readily observed”. The “physical performance for exercise and strength training activities” value (human subjects [2]; one subject, daily dose of 800 mg) was “improved physical performance”.
